Source: ChEMBL document CHEMBL3638721, “C-linked hydroxamic acid derivatives useful as antibacterial agents” (2014)
pIC50: −log10 of the molar value.

biological target: T1, UDP-3-O-acyl-N-acetylglucosamine deacetylase (Pseudomonas aeruginosa (strain ATCC 15692 / PAO1 / 1C / PRS 101 / LMG12228), UniProt P47205); test: At the end of 1 hour, 5 ul of 1N HCl was added to stop the enzyme reaction; the plates were centrifuged, and then processed with the BioTrove Rapidfire HTMS Mass Spectrometry System.
T1 sequence (P47205 whole entry): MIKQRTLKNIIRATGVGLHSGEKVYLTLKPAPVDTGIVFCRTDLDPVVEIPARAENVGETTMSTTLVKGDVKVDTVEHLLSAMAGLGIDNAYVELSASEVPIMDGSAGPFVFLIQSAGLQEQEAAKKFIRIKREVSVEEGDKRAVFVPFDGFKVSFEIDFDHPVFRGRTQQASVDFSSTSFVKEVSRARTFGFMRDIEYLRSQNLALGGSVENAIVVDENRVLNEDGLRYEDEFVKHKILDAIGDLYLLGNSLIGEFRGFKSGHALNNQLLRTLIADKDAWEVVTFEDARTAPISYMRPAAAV

Question: How did the pIC50 turn out when `CC(CCc1ccc(OCc2nc(-c3cccc(F)c3)no2)cc1)(C(=O)NO)S(C)(=O)=O` (configuration not stated) was run?
Answer: 8.42

Question: How did the pIC50 turn out when `CC(CCc1ccc(OCc2ccc3ccccc3n2)cc1)(C(=O)NO)S(C)(=O)=O` (configuration not stated) was run?
Answer: 7.86

Question: With `Cc1cccc(COc2ccc(CCC(C)(C(=O)NO)S(C)(=O)=O)cc2)c1F` (configuration not stated) as the compound, how does the pIC50 read?
Answer: 9.28

Question: With `CC(CCc1ccc(OCCc2ccccc2)cc1)(C(=O)NO)S(C)(=O)=O` (configuration not stated) as the compound, how does the pIC50 read?
Answer: 8.39

Question: How did the pIC50 turn out when `CC(CCc1ccc(OCc2cccc(OC(F)(F)F)c2)cc1)(C(=O)NO)S(C)(=O)=O` (configuration not stated) was run?
Answer: 8.57

Question: How did the pIC50 turn out when `CC(CCc1ccc(OCCC2CCCCC2)cc1)(C(=O)NO)S(C)(=O)=O` (configuration not stated) was run?
Answer: 8.55

Question: How did the pIC50 turn out when `CC(CCc1ccc(OCCc2ccncc2)cc1)(C(=O)NO)S(C)(=O)=O` (configuration not stated) was run?
Answer: 7.86

Question: How did the pIC50 turn out when `CCCCCCOc1ccc(CCC(C)(C(=O)NO)S(C)(=O)=O)cc1` (configuration not stated) was run?
Answer: 8.20

Question: With `CC(CCc1ccc(OCCCC2CCCCC2)cc1)(C(=O)NO)S(C)(=O)=O` (configuration not stated) as the compound, how does the pIC50 read?
Answer: 8.34

Question: `Cc1ncccc1COc1ccc(CCC(C)(C(=O)NO)S(C)(=O)=O)cc1` (configuration not stated) was tested. Which pIC50 did it give?
Answer: 8.25

Question: With `CC(CCc1ccc(OCc2nc3ccccc3s2)cc1)(C(=O)NO)S(C)(=O)=O` (configuration not stated) as the compound, how does the pIC50 read?
Answer: 9.19

Question: How did the pIC50 turn out when `CC(CCc1ccc(OCCC2CC2)cc1)(C(=O)NO)S(C)(=O)=O` (racemic) was run?
Answer: 8.87

Question: How did the pIC50 turn out when `CC(CCc1ccc(OCc2nc(-c3cc(F)cc(F)c3)no2)cc1)(C(=O)NO)S(C)(=O)=O` (configuration not stated) was run?
Answer: 8.24

Question: With `CC(CCc1ccc(OCc2nc(-c3cccc(F)c3F)no2)cc1)(C(=O)NO)S(C)(=O)=O` (configuration not stated) as the compound, how does the pIC50 read?
Answer: 8.27

Question: With `Cc1ccc(C)c(COc2ccc(CCC(C)(C(=O)NO)S(C)(=O)=O)cc2)c1` (configuration not stated) as the compound, how does the pIC50 read?
Answer: 8.37

Question: How did the pIC50 turn out when `CC(CCc1ccc(OCc2cccc(Cl)c2)cc1)(C(=O)NO)S(C)(=O)=O` (configuration not stated) was run?
Answer: 8.88

Question: With `CC(CCc1ccc(OCC2CCC2)cc1)(C(=O)NO)S(C)(=O)=O` (configuration not stated) as the compound, how does the pIC50 read?
Answer: 8.48

Question: With `CC(CCc1ccc(OCCCOCc2ccccc2)cc1)(C(=O)NO)S(C)(=O)=O` (configuration not stated) as the compound, how does the pIC50 read?
Answer: 7.68

Question: How did the pIC50 turn out when `CC(CCc1ccc(OC2CCCCC2)cc1)(C(=O)NO)S(C)(=O)=O` (configuration not stated) was run?
Answer: 9.12

Question: `CC(CCc1ccc(OCCCC2CCCC2)cc1)(C(=O)NO)S(C)(=O)=O` (configuration not stated) was tested. Which pIC50 did it give?
Answer: 8.59

Question: With `CC(CCc1ccc(OCC2CC2)cc1)(C(=O)NO)S(C)(=O)=O` (configuration not stated) as the compound, how does the pIC50 read?
Answer: 7.98

Question: `CC(CCc1ccc(OCc2cccc(F)c2)cc1)(C(=O)NO)S(C)(=O)=O` (configuration not stated) was tested. Which pIC50 did it give?
Answer: 9.08

Question: With `CC(CCc1ccc(OCc2cc(C#N)ccc2F)cc1)(C(=O)NO)S(C)(=O)=O` (configuration not stated) as the compound, how does the pIC50 read?
Answer: 8.87

Question: How did the pIC50 turn out when `CC(CCc1ccc(OCc2nc(Cc3cc(F)ccc3F)no2)cc1)(C(=O)NO)S(C)(=O)=O` (configuration not stated) was run?
Answer: 9.15

Question: With `CC(CCc1ccc(OCCC2CCCC2)cc1)(C(=O)NO)S(C)(=O)=O` (configuration not stated) as the compound, how does the pIC50 read?
Answer: 8.90

Question: With `CC(CCc1ccc(OCc2ccc(F)cc2C(F)(F)F)cc1)(C(=O)NO)S(C)(=O)=O` (configuration not stated) as the compound, how does the pIC50 read?
Answer: 8.63

Question: With `CC(CCc1ccc(OCCCc2ccccc2)cc1)(C(=O)NO)S(C)(=O)=O` (configuration not stated) as the compound, how does the pIC50 read?
Answer: 7.99

Question: With `Cc1cc(C)cc(COc2ccc(CCC(C)(C(=O)NO)S(C)(=O)=O)cc2)c1` (configuration not stated) as the compound, how does the pIC50 read?
Answer: 8.35

Question: `Cc1ccc(COc2ccc(CCC(C)(C(=O)NO)S(C)(=O)=O)cc2)cc1` (configuration not stated) was tested. Which pIC50 did it give?
Answer: 8.99

Question: How did the pIC50 turn out when `CC(CCc1ccc(OCCOc2ccccc2)cc1)(C(=O)NO)S(C)(=O)=O` (configuration not stated) was run?
Answer: 8.82

Question: How did the pIC50 turn out when `CCC(c1ccccc1)c1noc(COc2ccc(CCC(C)(C(=O)NO)S(C)(=O)=O)cc2)n1` (configuration not stated) was run?
Answer: 7.69

Question: `Cc1ccc(COc2ccc(CCC(C)(C(=O)NO)S(C)(=O)=O)cc2)cn1` (configuration not stated) was tested. Which pIC50 did it give?
Answer: 8.22

Question: With `CC(CCc1ccc(OCc2nc(C3CCCC3)no2)cc1)(C(=O)NO)S(C)(=O)=O` (configuration not stated) as the compound, how does the pIC50 read?
Answer: 8.14

Question: `Cc1ccc(-c2noc(COc3ccc(CCC(C)(C(=O)NO)S(C)(=O)=O)cc3)n2)cc1` (configuration not stated) was tested. Which pIC50 did it give?
Answer: 8.46

Question: How did the pIC50 turn out when `CC(C)CCCOc1ccc(CCC(C)(C(=O)NO)S(C)(=O)=O)cc1` (configuration not stated) was run?
Answer: 8.49

Question: With `COc1ccc(F)c(-c2noc(COc3ccc(CCC(C)(C(=O)NO)S(C)(=O)=O)cc3)n2)c1` (configuration not stated) as the compound, how does the pIC50 read?
Answer: 8.19

Question: `CCC(CC)COc1ccc(CCC(C)(C(=O)NO)S(C)(=O)=O)cc1` (configuration not stated) was tested. Which pIC50 did it give?
Answer: 8.89
